What is called melting point is the temperature, or range, at which the solid turns liquid.

This passage reports melting point results from a melting point compilation (Tetko et al.; mined from patent text by program, amines drawn as free bases though some values may be those of a salt).

SMILES strings stand for the structures.

As to `CCCCCCc1cc2c(cc1CNCC(=O)O)C(=O)CC2`, the melting point stood at 70 °C. `O=C(O)C=Cc1ccc(-c2cnc(CSCCOc3ccccc3)o2)cc1` gave a melting point of 150 to 153 °C.

Turning to `CCOC(=O)c1ccc(C=C2C(=O)COC2=O)s1`, the melting point lay within 204 to 206 °C.

With `Cc1cccc2ncc(C(=O)NC3CC3)c(=O)n12`, the melting point lay within 174 to 176 °C. `CCCC(Cc1ccc(OCc2ccccc2)cc1)C(=O)O` (centres undefined): the melting point is 83 to 85 °C. Molecule `NNc1ccnc2c(NC(=O)c3ccccc3[N+](=O)[O-])cccc12` registered a melting point of 198 to 203 °C. The figure for `O=C(O)CCCCCCc1cncc2ccccc12` is 108 to 109 °C.

In turn, `O=C1C=C(c2c[nH]c3ccc(O)cc23)C(=O)N1` registered a melting point of 292 to 298 °C. Molecule `C[C@@H](COc1ccc(N2CCN(c3ccncc3)CC2)cc1)CC(=O)OC(C)(C)C` had a melting point of 112 to 113 °C. `c1ccc(C2=N[C@@H](c3ccccc3)[C@H](N3CCOCC3)S2)cc1` (relative stereo) showed a melting point of 92 to 94 °C.

In the case of `NCC(=O)SCC(Cc1ccccc1)C(=O)Nc1cccc(C(=O)O)c1` (centres undefined), the melting point lay within 91 to 96 °C. `OC1CSC(Oc2cncc(-c3cncnc3)c2)C(O)C1O` (centres undefined) returned a melting point of 196 °C. Regarding `CCOCCc1ccc(OCCN(C(=O)n2ccnc2)c2ncnc(C)c2Cl)c(C)c1`, the melting point lay within 87 to 88 °C.

Molecule `COc1cc(COC(=O)C2Cc3sccc3C(=O)N2Cc2cc(OC)c(OC)c(OC)c2)cc(OC)c1OC` (centres undefined) had a melting point of 55 °C. The figure for `O=C(C(=O)N1CCC(N2CCCCC2)CC1)c1ccc2n1Cc1ccccc1N(C(=O)c1ccc(C3CCCCC3)cc1)C2` is 190 to 195 °C; for `CCOC(=O)c1c(S(C)=O)n(C2CC2)c2cc(F)c(F)cc2c1=O` (centres undefined) it is 207 °C. Turning to `CN(C)c1nnc(-c2ccc3occ(-c4cccc(OC(F)(F)F)c4)c3c2)o1`, the melting point was in the range of 105 to 106 °C. `O=C(NC1CCC1)c1ccc(F)c2c1CC(N(CCCc1c[nH]c3ccc(F)cc13)C1CCC1)CO2` (centres undefined) yielded a melting point of 135 °C. In turn, `CCOC(=O)c1cc(-n2c(OC)nc(C(F)(F)F)c(F)c2=O)c(F)cc1Cl` showed a melting point of 69 to 72 °C. The molecule `COC(=O)[C@@H]1OC(c2ccc(O)c(OC)c2)O[C@H]1C(=O)OC` showed a melting point of 88 to 90 °C. `C1=C(c2cccc(CNCCOc3cccc4c3OCC4)c2)CCC1` showed a melting point of 118 °C. As to `COc1ccc(C2(CCN3CCC(C(=O)c4nc5ccccc5n4Cc4ccc(F)cc4)CC3)CCN(C(=O)c3ccccc3)C2)cc1OC` (centres undefined), the melting point fell in the range of 42 to 44 °C. `CCOC(=O)CCCn1c(Nc2cnc(N3CCCC3)cc2C)nc2c(Cl)ccc(C(CC)CC)c21` had a melting point of 195 to 196 °C. The figure for `Cc1nnc(-c2cccc(I)c2)o1` is 104 to 105 °C. Molecule `NC(=O)c1cc2cc(Cl)ccc2nc1N` gave a melting point of 250 to 251 °C. The molecule `Cn1c(=O)cc(CN2CCC(c3c[nH]c4ccccc34)CC2)c2ccccc21` came in with a melting point of 228 to 229 °C. On to `COC(=O)N(CC(=O)O)C(=O)c1c(Br)ccc2c(C(F)(F)F)c(OC)ccc12`, for which the melting point is 164 to 166 °C. In turn, `O=C1N(Cc2ccccn2)c2ccccc2C12COc1c(Cl)cc3c(c12)OCCO3` (centres undefined) yielded a melting point of 197 to 199 °C. For the molecule `O=C(COc1cc(-c2ccccc2)nc2ccc(Cl)cc12)N1CCOCC1`, the melting point is 182 °C. The molecule `COc1ccc(C2CCOCC2)cc1NC(=S)c1ncc[nH]1` registered a melting point of 189 to 190 °C. With `COc1cc(Nc2c(C#N)cnc3cc(-c4ccc(C(=O)O)cc4)ccc23)c(Cl)cc1Cl` the figure was 282 to 283 °C; with `CC12CCC3c4cc(N)c(OCc5ccccc5)cc4CCC3C1CCC2=O` (centres undefined), 205 to 207 °C. The figure for `Sc1ccc(-c2nc3cnccc3[nH]2)cc1` is 230 °C. `Cc1cc(Br)ccc1-n1c(CF)nc2ccc(N)cc2c1=O` had a melting point of 194 to 196 °C. `COC(=O)c1cc(C(=O)N2CCC(C(N)=O)CC2)c2cc(Cc3ccc(F)cc3)cnc2c1O` displayed a melting point of 235 to 238 °C. With `CC(C)C1(C)N=C(c2ccc(C(C)(C)O)cn2)NC1=O` (centres undefined) the figure was 166 to 168 °C; with `CCCc1c(OCCCOc2cc(NC(=O)C(=O)O)c(C(F)(F)F)cc2Cl)ccc(C(C)=O)c1O`, 173 to 174 °C. Consider `FCC1(CF)OC1(CBr)c1cc(C(F)(F)F)ccc1Cl` (centres undefined), for which the melting point fell in the range of 54 to 55 °C.

For `Clc1nccc(Nc2cnc3ccccc3c2)n1`, the melting point is 140 to 143 °C. With `CCOC(=O)C(C#N)=CNc1ncccc1Cl`, the melting point lay in the range of 140 to 142 °C. `Cc1ccc(OC2SCC(O)C(O)C2O)cn1` (centres undefined) yielded a melting point of 233 °C. The molecule `COC(=O)c1c[nH]c(Sc2ccccc2C)c1` registered a melting point of 114 to 119 °C.

With `COc1cc(C=C2COCC(=Cc3cc(OC)c(OC)c(OC)c3)C2=O)cc(OC)c1OC`, the melting point is 187 to 189 °C. With `CC(=O)NC1CN(CCN2CCOCC2)S(=O)(=O)c2sc(S(N)(=O)=O)cc21` (centres undefined) the figure was 110 to 112 °C; with `CN(C)c1cccc(NC(=O)NC2C(=O)N(CC34CC5CC(CC(C5)C3)C4)c3ccccc3N(c3ccccc3)C2=O)c1` (centres undefined), 263 to 265 °C. The molecule `COC(=O)CCSC(C)(C)C(NS(=O)(=O)c1ccc(Oc2ccc(F)cc2)cc1)C(=O)O` (centres undefined) showed a melting point of 123 to 124 °C. `CC(SC1COC(c2ccc(C(=O)Nc3ccc(C#N)cc3)cc2F)OC1)C(O)(Cn1cncn1)c1ccc(F)cc1F` (centres undefined) displayed a melting point of 110 °C.

Take `CCOC(=O)c1ccc(NS(C)(=O)=O)c(N)c1`: the melting point amounted to 151 °C. The figure for `COC(=O)NCc1cccc(Br)c1` is 41 to 44 °C; for `CCNC(=O)c1cc(NS(=O)(=O)c2ccc(I)cc2)ccc1Oc1cncc(Cl)c1` it is 154 to 156 °C; for `CNC(NCCSCc1[nH]cnc1C)=C(C#N)C#N` it is 133 to 135 °C. For the molecule `O=c1[nH]c2ccc(C3CCC(NCCS(=O)c4ccccc4)CC3)cc2o1` (centres undefined), the melting point lay within 107 to 110 °C. Turning to `C#CCOC(=O)c1cc(C)oc1C`, the melting point was 35 to 37 °C. The molecule `C=CCOc1ncc(F)c(N(N)C(=O)c2cccc(C)c2)n1` showed a melting point of 181 to 185 °C. Consider `O=C(O)c1cccc(-c2cccc3oc(Cc4ccc(F)c(F)c4)cc23)c1`, for which the melting point was in the range of 194 to 195 °C.

In the case of `COc1ccccc1-n1cnc2c(C(N)=O)nc(Nc3cccc(O)c3)nc21`, the melting point was 155 to 157 °C. In the case of `CCCCCCCCC(=O)N1C(=O)CCC1=O`, the melting point is 59 to 60 °C. `COc1cc2ncc(C#N)c(Nc3cc(Br)c(O)c(Br)c3)c2cc1OC` yielded a melting point greater than 250 °C.

For `COc1ccc2c(C(=O)NCCCCC(=O)O)cc3cc4c(cc3c2c1)OCO4`, the melting point lay within 137 to 138 °C. The figure for `COC(=O)c1cn(-c2ccc(F)cc2)c(C=Cc2cccnc2)cc1=O` is 201 to 204 °C; for `NS(=O)(=O)c1cc(C(=O)O)cc([N+](=O)[O-])c1Sc1ccccc1` it is 245 to 247 °C; for `CCCCCCCCCCCCCCCCC12CCC3=C(CCc4cc(OC)ccc43)C1CCC2=O` (centres undefined) it is 54 to 56 °C. `CC(C)(C)c1ccc(C#N)cc1NC(=O)Nc1cccnc1`: the melting point lay within 194 to 196 °C.

`On1nnc2cccnc21` showed a melting point of 216 to 217 °C. The molecule `O=C(NCCCl)Oc1ccc(Cl)c2cccnc12` displayed a melting point of 146 °C.

`COC1=CC2SC2C2(OC)SC12OC` (centres undefined): the melting point fell in the range of 143 to 144 °C. In turn, `CS(=O)(=O)OCCc1ccc(OCc2coc(/C=C/c3ccccc3)n2)cc1` yielded a melting point of 121 to 122 °C.

Consider `O=C(NOCCBr)Nc1ccc(Cl)c(Cl)c1`, for which the melting point is 126 °C. `O=c1ccc(S(=O)(=O)c2cc3ccccc3[nH]2)n[nH]1` showed a melting point of 248 to 249 °C. `Cc1cccc(C)c1CNc1cc(Br)cc2c1nc(C)n2COCc1ccccc1` had a melting point of 147 to 148 °C.

Turning to `O=C1NCCCc2ccc([N+](=O)[O-])cc21`, the melting point lay in the range of 177 to 180 °C. Take `COc1ccc(C2CCN(c3c(C)c(C)c4c(c3C)C(O)(c3ccsc3)C(C)(C)O4)CC2)cc1OC` (centres undefined): the melting point lay within 125 to 128 °C. With `CCCCc1c(C(=O)O)[nH]c2c(Br)cccc2c1=O` the figure was 220 °C; with `O=C(c1ccc2nc(C3CC3)n(Cc3ccccc3Cl)c2c1)N1CCOCC1`, 193 to 195 °C; with `C[C@@H](NC(=O)c1c[nH]c2ncc(-c3nn(C)c4cc(C(C)(C)C)ccc34)nc12)C(=O)N1CC(C#N)C1`, 180 to 195 °C.

In the case of `CCOCc1cc2c(N=C=S)cccc2cn1`, the melting point is 66 °C. Consider `COc1ccc2c(C)c([N+](=O)[O-])ccc2c1C(F)(F)F`, for which the melting point was 141 to 142 °C. For the molecule `CC1(C)N=C(c2ccccc2Cl)c2cc(N)ccc2N(CCO)C1=O`, the melting point lay within 175 to 176 °C. `Oc1ccc2nc(-c3ccc(O)c(O)c3)oc2c1` showed a melting point of 282 to 284 °C. With `CC(C)(S)CNCc1ccc(O)cc1` the figure was 85 to 87 °C; with `CCN1CCC(C(c2ccccc2)c2ccccc2)C(=O)C1` (centres undefined), 73 to 74 °C; with `CCN1CCC(=O)C(=C2SC=CS2)C1=O`, 114 to 117 °C. Molecule `CC(C)(C)OC(=O)COc1ccccc1C=O` displayed a melting point of 68.6 °C. Molecule `CCOC(=O)c1cc2cc(-c3ccccc3)ccc2nn1` registered a melting point of 160 to 162 °C. Molecule `[N-]=[N+]=Nc1ccnc2c(NC(=O)c3c(Cl)cccc3Cl)cccc12` registered a melting point of 188 to 193 °C. `O=S(=O)(NCCCCCCCCCCOc1ccc(-n2ccnc2)cc1)c1ccc2ccccc2c1` yielded a melting point of 112 to 115 °C. With `CCOC(=O)CC1CCC2C3CC=C4C(C)(C)C(O)CCC4(C)C3CCC12C` (centres undefined), the melting point lay within 127 to 129 °C.

The molecule `CCCC[C@H](NC(=O)[C@H](CC(C)C)NC(=O)C1CCN(C(C)=O)CC1)C(=O)CSCc1ccco1` showed a melting point of 110 to 112 °C. Molecule `COc1ccc(-c2cc(=S)[nH]nc2-c2ccc(OC)c(F)c2)cc1` registered a melting point of 222 to 223 °C.
